Drawing on ChEMBL document CHEMBL6103582, “Computer-aided discovery of novel AMPK activators through virtual screening and SAR-driven synthesis” (Eur J Med Chem, 2025), this text covers fold change (FC) and Activity for 39 molecules.

Activity calls are given as the source filed them. The calls are words filed in the database; no cut-off is given here.

Data set [1] relates to N2a-APPswe. Put plainly: Activation of AMPK in mouse N2a APPswe cells assessed as increase in phosphorylation by measuring pAMPK/AMPK ratio at 10 uM measured after 24 hrs by Western blot analysis. The class given is cell-based. As to conditions: filed as activator. (A western blot detects proteins with antibodies after separation by electrophoresis.)
Data set [2] has as its system N2a-APPswe. Put plainly: Activation of AMPK in mouse N2a-APPswe cells assessed as increase in phosphorylation by measuring pACC/ACC ratio at 10 uM measured after 24 hrs by Western blot analysis. The note with it: filed as activator. The class given is cell-based.
For data set [3], the system named is N2a-APPswe. As to the kind of experiment: Activation of AMPK in mouse N2a-APPswe cells assessed as increase in phosphorylation by measuring pAMPK/AMPK ratio at 5 uM measured after 24 hrs by Western blot analysis. As to conditions: filed as activator. It is filed as cell-based.
The next data set has as its system AMPK. Put plainly: Activation of AMPK gamma (unknown origin) assessed as increase in phosphorylation of SAMS peptide by measuring fold change at 10 uM measured after 30 mins by ADP-Glo assay. The note with it: Homo sapiens, filed as activator. On the technique in general: In ADP-Glo the light output rises with the ADP produced.
A short description of data set [4]: Cytotoxicity against mouse N2a-APPswe cells assessed as cell viability at 5 uM measured after 24 hrs by WST-1 assay. It is filed as toxicity, cell-based. For orientation: Tetrazolium assays rely on reduction of a dye to a coloured formazan, in cell work by metabolically active cells.
Data set [5] deals with N2a-APPswe. As to the kind of experiment: Activation of AMPK in mouse N2a-APPswe cells assessed as increase in phosphorylated AMPK at Thr172 at 10 uM measured after 3 hrs by Western blot analysis. The class given is cell-based. The note with it: filed as activator.
Data set [6] deals with N2a-APPswe. Put plainly: Activation of AMPK in mouse N2a-APPswe cells assessed as increase in phosphorylated Raptor at Ser792 at 10 uM measured after 3 hrs by Western blot analysis. It is filed as cell-based. The note with it: filed as activator.
Data set [7] has as its system N2a-APPswe. As to the kind of experiment: Activation of AMPK in mouse N2a-APPswe cells assessed as increase in phosphorylated ACC at Ser79 at 10 uM measured after 3 hrs by Western blot analysis. As to conditions: filed as activator. It is filed as cell-based.

In the case of `COCCN1C(=O)N(Cc2cccnc2)C(=O)C12CCN(Cc1nc(-c3ccccc3)cs1)CC2`, the fold change (FC) in the data set on N2a-APPswe [1] was > 1; with N2a-APPswe [2] it was < 1.

For `O=C(/C=C/c1ccc(N2CCCCC2)cc1)c1ccc(O)cc1`, the fold change (FC) in the data set on N2a-APPswe [3] was > 1; in the data set with AMPK, 2.96. In data set [4], the Activity result was “Non-toxic”.

`O=C(CCn1cnnn1)N1CCCC(N2CCN(c3cccc(C(F)(F)F)c3)CC2)C1` (centres undefined): the fold change (FC) in the data set with N2a-APPswe [1] and in the data set with N2a-APPswe [2] was > 1 throughout.

In the case of `COc1ccc(/C=C/C(=O)c2cccc(NS(=O)(=O)c3ccc(Cl)cc3)c2)cc1`, the fold change (FC) in the data set on AMPK is 1.82.

Regarding `Cc1ccc(NCc2ccc(C(=O)N3CCC(C(=O)O)CC3)cc2)cc1`, the fold change (FC) with N2a-APPswe [1] and in the data set with N2a-APPswe [2] was > 1 each time.

In the case of `CCOC(=O)N1CCN(C(=O)c2ccc(N3CCC(NCCn4nc(C)cc4C)CC3)cc2)CC1`, the fold change (FC) with N2a-APPswe [1] and with N2a-APPswe [2] was > 1 in each case.

As for `COc1ccc(OC)c(/C=C/C(=O)c2ccc(NS(=O)(=O)c3ccc(Cl)cc3)cc2)c1`, the result with N2a-APPswe [5], with N2a-APPswe [6] and in the data set on N2a-APPswe [7] was Active. Besides, the fold change (FC) in the data set on N2a-APPswe [3] is > 1; with AMPK, 2.45. Further, the Activity entry in data set [4] is “Non-toxic”.

With `Cc1cc(-c2cc3c(n(Cc4cccnc4)c2=O)CCN(C(=O)c2ccc4c(c2)OCO4)C3)ccc1F`, the fold change (FC) in the data set on N2a-APPswe [1] and in the data set on N2a-APPswe [2] was > 1 each time.

Turning to `Cc1ccc(CCC(=O)Nc2ccc3c(c2)CN(C(=O)CCn2cnnn2)CC3)cc1`, the fold change (FC) with N2a-APPswe [1] and with N2a-APPswe [2] was > 1 throughout.

For the molecule `CCOCCOC(=O)COc1ccc2c(=O)c(Oc3cc(C)ccc3C)coc2c1`, the fold change (FC) with N2a-APPswe [1] was > 1.

Turning to `O=C(/C=C/c1ccc(N2CCCCC2)cc1)c1ccc(O)cc1O`, the fold change (FC) in the data set on N2a-APPswe [3] was > 1; in the data set with AMPK it was 2.48. Also, in data set [4], the Activity entry was “Non-toxic”.

In the case of `Nc1ccc(C(=O)/C=C/c2ccc(N3CCCCC3)cc2)cc1`, the fold change (FC) in the data set with N2a-APPswe [3] is > 1; in the data set on AMPK, 2.16. Also, the Activity result in data set [4] is recorded as “Non-toxic”.

Turning to `CN1CCN(c2ccc(C(=O)/C=C/c3ccc(O)cc3)cc2)CC1`, the fold change (FC) in the data set on AMPK was found to be 1.52.

For the molecule `COc1ccc(/C=C/C(=O)c2ccc(N)cc2)c(OC)c1`, in data set [4], the Activity result is “Non-toxic”.

With `COc1ccc(OC)c(/C=C/C(=O)c2cccc(N)c2)c1`, the fold change (FC) in the data set on N2a-APPswe [3] is > 1; in the data set on AMPK it was 2.62. Besides, the Activity entry in data set [4] is on record as “Non-toxic”.

With `Cc1ccc(C)c(Oc2coc3cc(OCc4ccc(F)cc4)ccc3c2=O)c1`, in the data set on N2a-APPswe [1], the fold change (FC) is > 1.

Take `COc1ccc(OC)c(/C=C/C(=O)c2cccc(NS(=O)(=O)c3ccc(Cl)cc3)c2)c1`: in the data set with AMPK, the fold change (FC) amounted to 1.94.

Take `Cc1cc(C)c(C)c(Oc2coc3cc(OC(=O)C(C)N4C(=O)c5ccccc5C4=O)ccc3c2=O)c1` (centres undefined): in the data set with N2a-APPswe [1], the fold change (FC) is > 1.

As for `Cn1ccnc1CNC(=O)CCc1nnc(-c2ccc(-c3ccccc3)cc2)o1`, the fold change (FC) in the data set on N2a-APPswe [1] and with N2a-APPswe [2] was > 1 in each case.

As to `O=C(O)C1CCCN(C(=O)Cn2nc(-c3ccc4ccccc4c3)ccc2=O)C1` (centres undefined), the fold change (FC) in the data set on N2a-APPswe [1] and in the data set with N2a-APPswe [2] was > 1 throughout.

In the case of `COc1ccc(/C=C/C(=O)c2cccc(N)c2)cc1`, the fold change (FC) was > 1 with N2a-APPswe [3] and 2.3 in the data set on AMPK. For the same molecule, the Activity entry in data set [4] is on record as “Non-toxic”.

Regarding `Cc1ccc(C)c(Oc2coc3cc(OCc4ccc(Cl)cc4Cl)ccc3c2=O)c1`, in the data set with N2a-APPswe [1], the fold change (FC) was > 1.

Turning to `COc1ccc(OC)c(C(=O)c2ccc(C(=O)N3CCc4c(cnc(C)c4CNC(C)=O)C3)cc2)c1`, the fold change (FC) in the data set with N2a-APPswe [1] and in the data set on N2a-APPswe [2] was > 1 in each case.

For `COc1ccc(OC)c(/C=C/C(=O)c2cccc(N(S(=O)(=O)c3ccc(Cl)cc3)S(=O)(=O)c3ccc(Cl)cc3)c2)c1`, the fold change (FC) in the data set on N2a-APPswe [3] was > 1; in the data set on AMPK, 2.53. Moreover, the Activity result in data set [4] is reported as “Non-toxic”.

As for `COc1cc(O)ccc1/C=C/C(=O)c1cccc(N)c1`, in the data set with AMPK, the fold change (FC) was found to be 1.73.

As to `Cc1ccc(C)c(Oc2coc3cc(OCC(=O)OCC(C)C)ccc3c2=O)c1`, the fold change (FC) in the data set with N2a-APPswe [1] was > 1.

`Cc1ccc(C)c(Oc2coc3cc(OC(=O)c4cccc(Br)c4)ccc3c2=O)c1`: the fold change (FC) with N2a-APPswe [1] and in the data set with N2a-APPswe [2] was > 1 each time.

Regarding `COc1cc(O)ccc1/C=C/C(=O)c1ccc(N2CCNCC2)cc1`, in the data set with AMPK, the fold change (FC) stood at 1.51.

Regarding `COc1ccc(OC)c(/C=C/C(=O)c2ccc(N)cc2)c1`, the fold change (FC) in the data set with AMPK worked out at 1.93.

As to `Cc1ccc(C)c(Oc2coc3cc(OC(=O)c4ccc(-c5ccccc5)cc4)ccc3c2=O)c1`, the fold change (FC) with N2a-APPswe [1] is > 1.

In the case of `CN1[C@@H](c2ccccc2)[C@@H](C(=O)NCCn2ccnc2)C[C@@]1(C)C(=O)O`, the fold change (FC) in the data set on N2a-APPswe [1] and in the data set with N2a-APPswe [2] was > 1 throughout.

As for `Cc1ccc(C)c(Oc2coc3cc(OCC(=O)OC4CCCCC4)ccc3c2=O)c1`, the fold change (FC) with N2a-APPswe [1] is > 1.

For the molecule `Nc1cccc(C(=O)/C=C/c2ccc(N3CCCCC3)cc2)c1`, the fold change (FC) in the data set with N2a-APPswe [3] is > 1; with AMPK, 2.05. Also, the Activity entry in data set [4] is on record as “Non-toxic”.

In the case of `Cc1ccccc1-c1noc(CCC(=O)NC(C)c2ccccc2-n2cccn2)n1` (centres undefined), the fold change (FC) in the data set on N2a-APPswe [1] and with N2a-APPswe [2] was > 1 in each case.

For the molecule `NC(=O)c1ncn([C@@H]2O[C@H](CO)[C@@H](O)[C@H]2O)c1N`, the fold change (FC) in the data set with N2a-APPswe [1] and in the data set with N2a-APPswe [2] was > 1 throughout.

In the case of `COc1ccc2c(=O)c(Oc3cc(C)ccc3C)coc2c1`, the fold change (FC) in the data set with N2a-APPswe [1] was > 1.

As for `N#CC1C(=O)Nc2scc(-c3ccc(-c4ccccc4O)cc3)c2C1=O` (centres undefined), the fold change (FC) in the data set on N2a-APPswe [1], in the data set with N2a-APPswe [3] and in the data set on N2a-APPswe [2] was > 1 throughout.

Consider `CCOC(=O)c1nn(CCCc2ccccc2)c2c1CN(C(=O)Cn1nc3ccccc3n1)CC2`, for which the fold change (FC) with N2a-APPswe [1] and with N2a-APPswe [2] was > 1 in each case.

With `Cc1ccc(C)c(Oc2coc3cc(OCCc4ccccc4)ccc3c2=O)c1`, the fold change (FC) in the data set on N2a-APPswe [1] was > 1.
